Several values for one entry are separate records, joined by “and”; a condition that tells them apart may be missing. Equal entries are not always repeated.
Key:
[1] = test system: L. lactis NZ9000/pNZ-Pnis-mCherry^Lla; experiment: Nisin sensor strain mCherry fluorescence assay; format: cell-based, Lactococcus lactis; conditions: 96-well microtiter plate assay
Method: (B) A photo of the bacterial pellet taken after growth in GM17 medium containing 10 ng/ml nisin.
Black lines indicate absorbance at 214 nm in milli arbitrary units (mAU) and grey lines % of solution B in the elation buffer. Broken lines indicate the boundaries of the peak fractions collected for further analysis. (B) L. lactis NZ9000/pNZ-Pnis-mCherry^Lla was used to assay presence of nisin in different samples during purification of ammonium sulphate-precipitated supernatants of C. glutamicum CR099/pXMJ-nisZBTC^opt (SN: plain culture supernatant; precip: ammonium sulphate precipitated supernatant proteins; IEX: peak fraction of ion exchange chromatography; RP peak fraction of reverse phase chromatography. pos: 10 ng/ml nisin; +/−: activation by trypsin).
The sensitivity of the spot-on-lawn assay using C. glutamicum CR099 as an indicator strain is very low. […] The strain L. lactis NZ9000/pNZ-Pnis-mCherry^Lla contains the NisRK two-component system and harbours a pNZ-derives plasmid for expression the red-fluorescent protein mCherry from the Pnis promoter (FIG. 11A), which is activated by NisR in a strictly nisin-dependent manner. In this construct, the coding sequence of the mCherry protein is optimized for codon usage of L. lactis. The respective sensor strain results in reddish coloured bacteria after o/N growth in the presence of 10 ng mL^−1 (FIG. 11B). […]

C. glutamicum CR099 [2] = experiment: Resistance of C. glutamicum CR099 to antimicrobial peptides, endpoint growth in 96-well microtiter plates; format: cell-based, Corynebacterium glutamicum
Method: Values are mean±standard deviation of n=4-7 independent experiments. (B) Growth of C. glutamicum CR099 in standard batch culture in 2xTY medium with 2% Glc in the presence (+PA-1) or absence (−PA-1) of 2.0 μg/mL pediocin. Values are mean±standard deviation of n=4 independent experiments. Growth rates were calculated during exponential growth phase. (C) Growth inhibition of L. monocytogenes EGDe::pIMK2 by supernatants of C. glutamicum CR099 in 2xTY medium with 2% Glc plus 2 μg/mL pure pediocin (+CR099). Supernatants were collected during the experiment shown in (B) at the indicated time-points. As controls, pediocin was incubated under the same conditions in sterile medium (−CR099). Values are OD600 of the indicator strain L. monocytogenes EGDe in a growth assay at the indicated dilutions of the samples and are mean±standard deviation of n=3 independent experiments. […]
The receptors for bacteriocins of the pediocin family on target organisms are the IIC and IID subunits of a sub-family of mannose-specific phosphotransferase systems (PTS^Man; PMID: 19477899). […] To corroborate this assumption, the resistance of C. glutamicum CR099 against different antimicrobial peptides was determined using an endpoint measurement of growth in 96-well microtiter plates (FIG. 2A).

C. glutamicum CR099 [3] = experiment: Growth of C. glutamicum CR099 in standard batch culture with pediocin; format: cell-based, Corynebacterium glutamicum; conditions: 2 μg mL^−1 pediocin, baffled Erlenmeyer flask, 2xTY with 2% Glc
Method: (§1) Values are mean±standard deviation of n=4-7 independent experiments. (B) Growth of C. glutamicum CR099 in standard batch culture in 2xTY medium with 2% Glc in the presence (+PA-1) or absence (−PA-1) of 2.0 μg/mL pediocin. Values are mean±standard deviation of n=4 independent experiments. Growth rates were calculated during exponential growth phase. (C) Growth inhibition of L. monocytogenes EGDe::pIMK2 by supernatants of C. glutamicum CR099 in 2xTY medium with 2% Glc plus 2 μg/mL pure pediocin (+CR099). Supernatants were collected during the experiment shown in (B) at the indicated time-points. As controls, pediocin was incubated under the same conditions in sterile medium (−CR099). Values are OD600 of the indicator strain L. monocytogenes EGDe in a growth assay at the indicated dilutions of the samples and are mean±standard deviation of n=3 independent experiments. In all graphs, the bottom and top lines indicate OD600 of the positive (i.e. complete inhibition of growth) or negative (i.e. in the absence of an antimicrobial peptide), respectively. The broken middle lines represent growth inhibition of 50%, i.e. the threshold to calculate bacteriocin units.
By contrast, C. glutamicum CR099 was able to grow in the presence of at least 12.5 μg mL^−1 pediocin PA-1.

[4] = test system: L. innocua LMG2785::pIMK2; experiment: Microtiter plate growth inhibition assay, L. innocua indicator; format: cell-based, Listeria innocua; conditions: serial 2-fold dilutions of pediocin standard
Source text: (§2) (B) Growth inhibition of L. monocytogenes EGDe::pIMK2 by supernatants of P. acidilactici 347 (Paci) collected in early stationary growth phase at the indicated dilution. Values are mean±standard deviation of at least n=3 independent experiments per condition. Dilution series sterile H2O (A) or MRS medium (B) were used as negative controls. Hatched bars indicate growth of the indicator strain without addition of diluted supernatant or pediocin, i.e. maximum growth. The bottom and top lines indicate OD600 of the positive (i.e. complete inhibition of growth) or negative (i.e. in the absence of an antimicrobial peptide), respectively. The broken middle line represents growth inhibition of 50%, i.e. the threshold to calculate bacteriocin units.
2h after inoculation Glc (2% w/v) and IPTG (0.1 mM) were added to induce production of pediocin (B) Growth inhibition of L. innocua LMG2785::pIMK2 by different dilutions of supernatants of C. glutamicum CR099/pEKEx2-pedACD (pedACD) collected at the indicated timepoints during the growth experiment shown in (A). All values are mean±standard deviation of n=3 independent experiments. […]
(§3) To validate the assay, anti-microbial activity in supernatants of P. acidilactici 347, a natural producer of pediocin was measured following growth in MRS medium to early stationary growth phase (FIG. 1B). […]

[5] = test system: L. monocytogenes EGDe::pIMK2; experiment: Microtiter plate growth inhibition assay, L. monocytogenes indicator; format: cell-based, Listeria monocytogenes; conditions: serial 2-fold dilutions of pediocin standard
Source text: as §2
Pediocin PA-1 is a bacteriocin with potent antimicrobial activity against a range of Gram-positive microorganisms including important human pathogens such as Listeria monocytogenes. As a first step towards recombinant production of pediocin PA-1, a growth-dependent assay was established using L. monocytogenes EGDe::pIMK2 or L. innocua LMG2785::pIMK2 as indicator strains, and commercially available, purified pediocin (FIG. 1A). […]
as §3

[6] = test system: L. monocytogenes EGDe::pIMK2; experiment: Pediocin activity remaining in culture supernatant during C. glutamicum CR099 cultivation; format: cell-based, Listeria monocytogenes
Method: as §1
Additionally, activity of pediocin was measured in the culture supernatant at select timepoints during the cultivation. […] The observed reduction in activity was therefore considered to be related to adsorption of the positively charged pediocin to the negative surface of bacteria and, at later timepoints, to oxidative inactivation.

Row | Substance | limit of detection of the sensor strain for active nisin [1] | concentration above which growth of C. glutamicum CR099 is inhibited (C. glutamicum CR099 [2]; preliminary experiments) [ng/mL] | effect on final optical density and growth rate (C. glutamicum CR099 [3]) | concentration in the presence of which C. glutamicum CR099 was able to grow (C. glutamicum CR099 [2]; 96-well microtiter plates, endpoint growth) | minimal concentration to completely inhibit growth of the indicator strain [4] [ng/mL] | minimal concentration to completely inhibit growth of the indicator strain [5] [ng/mL] | pediocin activity in culture supernatant, initial ([6]; 2 μg/mL pediocin in growing C. glutamicum CR099 culture, start) [BU mL^−1] | pediocin activity after 24 hours in control incubation ([6]; 2xTY without bacteria, 24 hours) | pediocin activity in culture supernatant after slight initial reduction ([6]; growing C. glutamicum CR099 culture, stable for several hours) [BU mL^−1] | pediocin activity in culture supernatant after 24 hours ([6]; in the presence of C. glutamicum CR099, 24 hours) [BU mL^−1]
1 | nisin | 0.2 to 0.5 ng/mL and 0.25 to 0.5 ng/mL | > 100 | – | – | – | – | – | – | – | –
2 | pediocin PA-1 (KYYGNGVTCGKHSCSVDWGKATTCIINNGAMAWATGGHQGNHKC; listed as Pediococcus acidilactici) [commercially available, purified Class IIA bacteriocin] | – | – | did not affect final optical density and growth rate | at least 12.5 μg mL^−1 | 39 | 39 | 2560 | the same reduction was observed | 1280 | 160

— patent US20220348615A1, “PRODUCTION OF BACTERIOCINS” (priority 2021, published 2022)
